The term EC50 denotes the concentration that produces a half-maximal response. A higher EC50 goes with weaker potency.

SMILES strings stand for the structures. Some results are limits rather than exact numbers.

The target in the experiment is T1, FXR (Homo sapiens, UniProt Q96RI1).
T1 construct: expressed in transfected cells; host or cells: CV-1 cells
T1 sequence (Q96RI1 1-486): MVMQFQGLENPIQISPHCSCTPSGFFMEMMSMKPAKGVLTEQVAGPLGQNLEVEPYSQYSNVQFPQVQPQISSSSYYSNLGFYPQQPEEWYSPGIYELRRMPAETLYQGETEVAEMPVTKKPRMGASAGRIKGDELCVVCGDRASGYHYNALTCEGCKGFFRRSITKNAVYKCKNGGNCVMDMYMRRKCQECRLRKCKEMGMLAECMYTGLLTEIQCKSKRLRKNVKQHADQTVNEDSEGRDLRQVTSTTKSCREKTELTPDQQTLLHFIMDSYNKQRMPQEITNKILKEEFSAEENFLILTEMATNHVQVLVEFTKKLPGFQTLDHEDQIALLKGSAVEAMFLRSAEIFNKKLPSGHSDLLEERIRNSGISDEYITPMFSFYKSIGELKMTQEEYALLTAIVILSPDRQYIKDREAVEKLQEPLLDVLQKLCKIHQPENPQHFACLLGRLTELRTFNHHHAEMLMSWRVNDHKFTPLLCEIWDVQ
T1 sequence (P19793 1-462 partner): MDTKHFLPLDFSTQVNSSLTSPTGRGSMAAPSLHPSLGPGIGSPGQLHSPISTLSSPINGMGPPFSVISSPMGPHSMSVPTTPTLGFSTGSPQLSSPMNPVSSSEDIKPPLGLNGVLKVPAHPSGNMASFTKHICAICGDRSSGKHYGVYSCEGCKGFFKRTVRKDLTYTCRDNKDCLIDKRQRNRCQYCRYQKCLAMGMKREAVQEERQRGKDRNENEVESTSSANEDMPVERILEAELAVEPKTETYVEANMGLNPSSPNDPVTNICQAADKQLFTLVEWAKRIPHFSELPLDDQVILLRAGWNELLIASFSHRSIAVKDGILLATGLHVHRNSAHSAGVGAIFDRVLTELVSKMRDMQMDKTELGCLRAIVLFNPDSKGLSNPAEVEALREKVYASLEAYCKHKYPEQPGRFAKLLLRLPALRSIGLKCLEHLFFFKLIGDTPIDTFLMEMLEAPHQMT
Description: In Vitro FXR Assay (TK): TK-ECRE-luc reporter in transfected CV-1 cells. It is filed as cell-based. Particulars: CV-1 cells transfected with hFXR, hRXR, 18 h incubation, luminescence. Here is the method:
Example B-2: In Vitro FXR Assay (TK)
CV-1 cells were seeded at a density of 2,000,000 cells in a T175 flask with DMEM+10% charcoal double-stripped FBS and incubated at 37° C. in 5% CO2 for 18 h (O/N).
After 18 h of incubation, the medium in the T175 flask was changed with fresh DMEM+10% charcoal super-stripped serum. In a polypropylene tube, 2500 μL OptiMEM (Life Technologies, Cat #31985-062) was combined with expression plasmids for hFXR, hRXR, TK-ECRE-luc and pCMX-YFP. The tube was then briefly vortexed and incubated at room temperature for 5 minutes. Transfection reagent (X-tremeGENE HP from Roche, Cat #06 366 236 001) was added to the OptiMEM/plasmid mixture vortexed and incubated at room temperature for 20 minutes. Following incubation, the transfection reagent/DNA mixture complex was added to cells in the T175 flask and the cells were incubated at 37° C. in 5% CO2 for 18 h (O/N).
Compounds were serially diluted in DMSO and added to transfected CV-1 cells. The cells were then incubated for 18 hrs. The next day cells were lysed and examined for luminescence.
`COC(=O)/C=C/c1cccc(N(Cc2ccc(-c3ccc(OC)c(C)c3)cc2)C(=O)C2CCN(S(C)(=O)=O)CC2)c1` [62.17, (E)-Methyl 3-(3-(N-((4′-methoxy-3′-methyl-[1,1′-biphenyl]-4-yl)methyl)-1-(methylsulfonyl)piperidine-4-carboxamido)phenyl)acrylate]: the half-maximal effective concentration (EC50) is 1 to 10 µM.
In turn, `COC(=O)/C=C/c1cccc(N(Cc2ccc(-c3ccc4c(c3)nnn4C)cc2)C(=O)C2CCCCC2)c1` [75.1, (E)-Methyl 3-(3-(N-(4-(1-methyl-1H-benzo[d][1,2,3]triazol-5-yl)benzyl)cyclohexanecarboxamido)phenyl) acrylate] registered a 50% effective concentration (EC50) of 1 to 10 µM.
The figure for `COC(=O)/C=C/c1cccc(N(Cc2ccc(-c3ccc(N4CCC4)cc3)cc2)C(=O)C2CCCCC2)c1` [75.2, (E)-Methyl 3-(3-(N-((4′-(azetidin-1-yl)-[1,1′-biphenyl]-4-yl)methyl)cyclohexanecarboxamido)phenyl) acrylate] is 1 to 10 µM; for `COC(=O)/C=C/c1cccc(N(Cc2ccc(-c3cnc(N(C)C)nc3)cc2)C(=O)C2CCCCC2)c1` [75.3, (E)-Methyl 3-(3-(N-(4-(2-(dimethylamino)pyrimidin-5-yl)benzyl)cyclohexanecarboxamido)phenyl) acrylate] it is ≤ 1 µM.
The figure for `COC(=O)/C=C/c1cccc(N(Cc2ccc(-c3cnc(N(C)C)cn3)cc2)C(=O)C2CCCCC2)c1` [75.4, (E)-Methyl 3-(3-(N-(4-(5-(dimethylamino)pyrazin-2-yl)benzyl)cyclohexanecarboxamido)phenyl) acrylate] is 1 to 10 µM; for `COC(=O)/C=C/c1cccc(N(Cc2ccc(-c3ccc(N(C)C)nn3)cc2)C(=O)C2CCCCC2)c1` [75.5, (E)-Methyl 3-(3-(N-(4-(6-(dimethylamino)pyridazin-3-yl)benzyl)cyclohexanecarboxamido)phenyl) acrylate] it is 1 to 10 µM.
The figure for `COC(=O)/C=C/c1cccc(N(Cc2ccc(-c3ccc(N(C)S(C)(=O)=O)cc3)cc2)C(=O)C2CCCCC2)c1` [75.6, (E)-Methyl 3-(3-(N-((4′-(N-methylmethylsulfonamido)-[1,1′-biphenyl]-4-yl)methyl)cyclohexanecarboxamido)phenyl) acrylate] is 1 to 10 µM.
With `COC(=O)/C=C/c1cccc(N(Cc2ccc(-c3ccc(S(C)(=O)=O)c(F)c3)cc2)C(=O)C2CCCCC2)c1` [75.7, (E)-Methyl 3-(3-(N-((3′-fluoro-4′-(methylsulfonyl)-[1,1′-biphenyl]-4-yl)methyl)cyclohexanecarboxamido)phenyl) acrylate], the 50% effective concentration (EC50) is > 10 µM.
The figure for `COC(=O)/C=C/c1cccc(N(Cc2ccc(-c3ccc(S(C)(=O)=O)cc3F)cc2)C(=O)C2CCCCC2)c1` [75.8, (E)-Methyl 3-(3-(N-((2′-fluoro-4′-(methylsulfonyl)-[1,1′-biphenyl]-4-yl)methyl)cyclohexanecarboxamido)phenyl) acrylate] is 1 to 10 µM; for `COC(=O)/C=C/c1cccc(N(Cc2ccc(-c3ccc4ncsc4c3)cc2)C(=O)C2CCCCC2)c1` [75.9, (E)-Methyl 3-(3-(N-(4-(benzo[d]thiazol-6-yl)benzyl)cyclohexanecarboxamido)phenyl) acrylate] it is 1 to 10 µM; for `COC(=O)/C=C/c1cccc(N(Cc2ccc(-c3ccc(S(C)(=O)=O)c(Cl)c3)cc2)C(=O)C2CCCCC2)c1` [75.10, (E)-Methyl 3-(3-(N-((3′-chloro-4′-(methylsulfonyl)-[1,1′-biphenyl]-4-yl)methyl)cyclohexanecarboxamido)phenyl) acrylate] it is > 10 µM.
In turn, `COC(=O)/C=C/c1cccc(N(Cc2ccc(-c3ccc4ocnc4c3)cc2)C(=O)C2CCCCC2)c1` [75.11, (E)-Methyl 3-(3-(N-(4-(benzo[d]oxazol-5-yl)benzyl)cyclohexanecarboxamido)phenyl) acrylate] displayed an EC50 of 1 to 10 µM.
In the case of `COC(=O)/C=C/c1cccc(N(Cc2ccc(-c3ccc4ncoc4c3)cc2)C(=O)C2CCCCC2)c1` [75.12, (E)-Methyl 3-(3-(N-(4-(benzo[d]oxazol-6-yl)benzyl)cyclohexanecarboxamido)phenyl) acrylate], the EC50 was 1 to 10 µM.
The figure for `COC(=O)/C=C/c1cccc(N(Cc2ccc(-c3ccc4cnoc4c3)cc2)C(=O)C2CCCCC2)c1` [75.13, (E)-Methyl 3-(3-(N-(4-(benzo[d]isoxazol-6-yl)benzyl)cyclohexanecarboxamido)phenyl) acrylate] is > 10 µM; for `COC(=O)/C=C/c1cccc(N(Cc2ccc(-c3ccc4scnc4c3)cc2)C(=O)C2CCCCC2)c1` [75.14, (E)-Methyl 3-(3-(N-(4-(benzo[d]thiazol-5-yl)benzyl)cyclohexanecarboxamido)phenyl) acrylate] it is ≤ 1 µM; for `COC(=O)/C=C/c1cccc(N(Cc2ccc(-c3ccc4oncc4c3)cc2)C(=O)C2CCCCC2)c1` [75.15, (E)-Methyl 3-(3-(N-(4-(benzo[d]isoxazol-5-yl)benzyl)cyclohexanecarboxamido)phenyl) acrylate] it is > 10 µM.
On to `COC(=O)/C=C/c1cccc(N(Cc2ccc(-c3ccc4cnsc4c3)cc2)C(=O)C2CCCCC2)c1` [75.16, (E)-Methyl 3-(3-(N-(4-(benzo[d]isothiazol-6-yl)benzyl)cyclohexanecarboxamido)phenyl) acrylate], for which the EC50 was 1 to 10 µM.
The figure for `COC(=O)/C=C/c1cccc(N(Cc2ccc(-c3ccc4sncc4c3)cc2)C(=O)C2CCCCC2)c1` [75.17, (E)-Methyl 3-(3-(N-(4-(benzo[d]isothiazol-5-yl)benzyl)cyclohexanecarboxamido)phenyl) acrylate] is 1 to 10 µM; for `COC(=O)/C=C/c1cccc(N(Cc2ccc(-c3ccc4c(c3)c(F)nn4C)cc2)C(=O)C2CCCCC2)c1` [75.18, (E)-Methyl 3-(3-(N-(4-(3-fluoro-1-methyl-1H-indazol-5-yl)benzyl)cyclohexanecarboxamido)phenyl) acrylate] it is ≤ 1 µM.
With `COC(=O)/C=C/c1cccc(N(Cc2ccc(-c3ccc4c(C)nsc4c3)cc2)C(=O)C2CCCCC2)c1` [75.19, (E)-Methyl 3-(3-(N-(4-(3-methylbenzo[d]isothiazol-6-yl)benzyl)cyclohexanecarboxamido)phenyl) acrylate], the concentration for a half-maximal effect (EC50) was ≤ 1 µM.
As to `CN(C)c1ccc(-c2ccc(CN(C(=O)C3CCCCC3)c3cccc(/C=C/C(=O)OC4CCCCC4)c3)cc2)cc1` [86.1, (E)-Cyclohexyl 3-(3-(N-((4′-(dimethylamino)-[1,1′-biphenyl]-4-yl)methyl)cyclohexanecarboxamido)phenyl) acrylate], the EC50 is > 10 µM.
As to `CC(C)COC(=O)/C=C/c1cccc(N(Cc2ccc(-c3ccc(N(C)C)cc3)cc2)C(=O)C2CCCCC2)c1` [86.2, (E)-Isobutyl 3-(3-(N-((4′-(dimethylamino)-[1,1′-biphenyl]-4-yl)methyl)cyclohexanecarboxamido)phenyl) acrylate], the half-maximal effective concentration (EC50) was > 10 µM.
The figure for `COCCOC(=O)/C=C/c1cccc(N(Cc2ccc(-c3ccc(N(C)C)cc3)cc2)C(=O)C2CCCCC2)c1` [86.3, (E)-2-Methoxyethyl 3-(3-(N-((4′-(dimethylamino)-[1,1′-biphenyl]-4-yl)methyl)cyclohexanecarboxamido)phenyl) acrylate] is 1 to 10 µM; for `CN(C)CCOC(=O)/C=C/c1cccc(N(Cc2ccc(-c3ccc(N(C)C)cc3)cc2)C(=O)C2CCCCC2)c1` [86.4, (E)-2-(Dimethylamino)ethyl 3-(3-(N-((4′-(dimethylamino)-[1,1′-biphenyl]-4-yl)methyl)cyclohexanecarboxamido)phenyl) acrylate] it is > 10 µM; for `CN(C)c1ccc(-c2ccc(CN(C(=O)C3CCCCC3)c3cccc(/C=C/C(=O)OCC4CCCO4)c3)cc2)cc1` (stereo not shown) [86.5, (E)-(Tetrahydrofuran-2-yl) methyl 3-(3-(N-((4′-(dimethylamino)-[1,1′-biphenyl]-4-yl)methyl)cyclohexanecarboxamido)phenyl) acrylate] it is > 10 µM.

Values taken from patent US10626081B2, “Farnesoid X receptor agonists and uses thereof” (Metacrine, Inc., priority 2015, dated 2020).
